In paper PMC5051273 (Phytotherapy research : PTR, 2015):

Target: mammalian target of rapamycin (mTOR) (Homo sapiens, UniProt P42345)
Test: Invitrogen Z'-LYTE kinase assay, five concentrations
Type: biochemical

C/C=C(/C=O)[C@@H](CC=O)CC(=O)OCCc1ccc(O)cc1 [oleocanthal]
IC50: 708 nM
